According to US9688620B2, “Methods for treating fibromyalgia syndrome” (SK Biopharmaceuticals Co., Ltd., priority 2009, dated 2017):

Assays:
[1] = system: hypocretin cell ablated narcoleptic mice (prepororexin/ataxin-3 transgenic); experiment: Sleep parameters (EEG/EMG polygraph) in narcoleptic mice; type: in vivo; settings: for wake-promoting effects (magnitude): active (dark) period; for wakefulness (dose dependence): active period (dosed PO at ZT 14); for wake-promoting effects: resting period (dosed PO at ZT 2); for duration of continuous wakefulness: most narcoleptic mice
Description: (§1) The polygraph signal (EEG and EMG) was captured with SleepSign (Kissel Comtech), and the sleep stage was visually scored with 10 sec epoch for wakefulness, non-REM sleep and REM sleep. Scoring criteria are: Wakefulness is characterized by desynchronized low-amplitude, mixed frequency (>4 Hz) EEG and high EMG activity. Rhythmic alpha (8-9 Hz) wave (with high EMG activities) may also appear. Non-REM is characterized by synchronized, high-amplitude, low-frequency (0.25-4 Hz) with reduced EMG activity (compared to wakefulness). EEG activity in REM sleep is similar to that in wakefulness, with desynchronized, mixed frequency low amplitude waves. Rhythmic alpha (8-9 Hz) wave with reduced EMG activities may also appear. […] activity during REM sleep is reduced even further and in many cases, completely absent. Some muscle twitching may be apparent in the EMG trace during REM sleep.
(§2) Three drug doses of the test compound (50, 100 and 150 mg/kg PO) plus vehicle, was orally administered at ZT 2 (2 hours after light on) or ZT 14 (2 hours after light off), and the effects on sleep was monitored for 6 hours after the drug administration (the sleep data was collected for 30 hours after the drug injection, and are available for further analysis). The doses for modafinil were 50 and 200 mg/kg PO (plus vehicle), and modafinil was also administered at ZT 2 and ZT14.
(§3) If the polygraph signals of some mice were not sufficient to score the sleep stage with accuracy (especially bad EMG), data from these animals were excluded, and the minimum of 5 animals (except for the highest dose of the test compound in wild-type mice in dark period, n=4) were included for the data analysis and number of animals were indicated in the figures.
(§4) Effects of test compound and modafinil on the amount of wake, non-REM sleep, REM sleep (cumulative seconds), number of episodes for each sleep stage during 6 hours, mean wake/sleep-bout lengths (seconds) were analyzed in each animal and the mean of each parameter was calculated in each genotype. The effects of compounds on wake and sleep amounts are useful to evaluate the wake promoting potency, and the number of episodes for each sleep stage and the mean wake/sleep bout length are parameters for evaluating the sleep fragmentation. Amphetamine and modafinil, two main wake-promoting compounds currently used for the treatment of EDS associated with various etiologies (narcolepsy, idiopathic hypersomnia and secondary EDS), are known to increase wake time and prolong wake bout length in normal and EDS conditions.
(§5) A comparison of the effects between hypocretin deficient and wild-type mice is very useful in determining if the wake-promotion of the test compound is dependent on the availability of hypocretins, and if there is a possible change in the sensitivity of the receptive mechanisms of test compound in narcoleptic mice due to the hypocretin ligand deficiency.

[2] = system: littermate wild-type mice; experiment: Sleep parameters (EEG/EMG polygraph) in littermate wild-type mice; type: in vivo; settings: for wake-promoting effects: resting period (dosed PO at ZT 2); for duration of continuous wakefulness: most wild-type mice
Description: as §1, §2, §3, §4, §5

[3] = system: rats with sciatic nerve ligation; experiment: Thermal hyperalgesia (hindpaw withdrawal latency, plantar tester) in rats with sciatic nerve ligation; type: in vivo, Sprague-Dawley rats; settings: 30 mg/kg IP; for mean paw withdrawal latency: n = 6
Protocol: Young adult male Sprague-Dawley rats (CD(SD)IGS, 150-200 g) were initially anesthetized with isoflurane in O2 by a mask and the surgical procedure was performed according to the method described by Bennett and Xie (1988). Briefly, the right sciatic nerves were loosely tied using ligatures. All experiments were conducted in accordance with the guidelines of the International Association for the Study of Pain. The behavioral tests were conducted at least 14 days postoperatively.
The test compound was dissolved in saline and administered intraperitoneally at 30 mg/kg to animals in a volume of 3 mL/kg body weight.
To test for thermal hyperalgesia, the thermal response was determined by the hindpaw withdrawal latency, using a plantar tester (UGO BASILE, Italy), and a modified method of Hargreaves et al. (1988). Rats were allowed to acclimate within plastic enclosures on a clear glass plate maintained at room temperature. A radiant heat source (intensity 90) was controlled with a timer and focused onto the plantar surface of the rat right hind paw encompassing the glabrous skin. Paw withdrawal stopped both heat source and timer. A maximal cut-off 30 sec was used to prevent tissue damage. Rats were assessed for thermal hyperalgesia predose (0 hr) and at 1, 4 and 8 hours after 30 mg/kg test compound administration.
Data are expressed as mean±standard error of mean (SEM). The values of behavioral signs of neuropathic pain at various postoperative time points were compared with those of the preoperative control period by a repeated-measure One-way Analysis of Variance (followed by Dunnett's post-hoc test). P-values less than 0.05 were considered to be significant.

Male CD-1 mice = experiment: Forced swimming test in mice; type: in vivo; settings: for mean duration of immobility: mice
Protocol: (§6) Male CD-1 mice (16-24 g) and male Wistar rats (90-125 g) were utilized in these experiments. The test compound (10, 15 and 30 mg/kg) was dissolved in physiological saline (0.9%) and administered orally PO in a volume of 1 mL/100 g body weight.
(§7) Mice and rats were placed in glass cylinders (1000 ml beakers; height 14 cm, diameter 11.5 cm) and (4000 ml beakers; height 24.5 cm, diameter 18.0 cm) respectively, containing water (25 degrees Celsius) up to a height of 9.0 cm for mice and 19.0 for rats. […] Immobility was defined as lack of movement, such as floating in the water with little or no movement of hind legs. Duration of immobility was timed with a stopwatch and recorded. In some experiments, mice or rats were allowed to swim for 6 or 10 minutes, respectively, one day prior to the forced swimming experiment.
(§8) In the single dose test, mice or rats were given test compound or 0.9% NaCl and placed in glass cylinders 1 hour or 4 hours post-treatment, respectively. In the multiple dose experiments, mice were dosed twice a day for 3 days and given an additional dose on Day 4. In addition, the mice were placed in the glass cylinders containing water at 25 degrees Celsius and allowed to swim for six minutes on Day 3. Statistical evaluation was performed using a computer program based on probit analysis. Statistical significance was determined using Student's t-test at a P value of <0.05.

male Wistar rats = experiment: Forced swimming test in rats; type: in vivo; settings: 4 hours post-treatment
Protocol: as §6, §7, §8

[4] = resting period, genotypes not distinguished

NC(=O)C[S+]([O-])C(c1ccccc1)c1ccccc1 (stereo not drawn) [modafinil, reference compound]
wake amount ([1]; 200 mg/kg (high dose), active period, narcoleptic mice): did not bring the wake amount to that of the wild-type baseline levels | wake-promoting effects (magnitude) ([1]; narcoleptic mice): much weaker | wakefulness (dose dependence) ([1]; narcoleptic mice): dose-dependently increase | dose of test compound to which the wake promoting effect of modafinil roughly corresponds ([1]; modafinil 200 mg/kg PO, resting period, genotypes not distinguished): ~50 mg/kg | wake-promoting effects ([1]; narcoleptic mice): modest | REM sleep [1, 4]: did not strongly reduce REM sleep | wake-promoting effects ([2]; wild-type mice): modest

NC(=O)OC[C@H](N)Cc1ccccc1 [test compound, O-carbamoyl-(D)-phenylalaminol]
mean paw withdrawal latency ([3]; 0 hr (predose baseline)): 5.17 s | mean paw withdrawal latency ([3]; 1 hr post-injection, P < 0.01 vs 0 hr): 6.33 s | mean paw withdrawal latency ([3]; 4 hr post-injection, P < 0.05 vs 0 hr): 6.06 s | mean paw withdrawal latency ([3]; 8 hr post-injection): 5.63 s | paw withdrawal latency to a thermal stimulus (in words) ([3]; vs pre-injection (0 hr) latency): significantly increased | % of Antagonism ([3]; 1 hr vs 0 hr latency): 0.14**(22.3% | % of Antagonism ([3]; 4 hr vs 0 hr latency): 0.21*(17.2%) | % of Antagonism ([3]; 8 hr vs 0 hr latency): 0.16(8.8%) | duration of continuous wakefulness ([1]; 50 mg/kg PO, resting period): up to 3 hours | duration of continuous wakefulness ([1]; 100 mg/kg PO, resting period): ≤ 4 h | wake amounts ([1]; 100 mg/kg, active period, narcoleptic mice): brought up to the levels of wild-type mice | duration of continuous wakefulness ([1]; 150 mg/kg PO, resting period): ≤ 5 h | wake amounts ([1]; 150 mg/kg, active period, narcoleptic mice): brought up to the levels of wild-type mice | Non-REM and REM sleep during the period of continuous wakefulness ([1]; 50, 100, 150 mg/kg PO, resting period, narcoleptic mice): completely suppressed | sleep patterns of narcoleptic mice ([1]; 50-150 mg/kg PO): normalize | bouts of wakefulness ([1]; 50-150 mg/kg PO, narcoleptic mice): significantly increased | wake-promoting effects (magnitude) ([1]; narcoleptic mice): much pronounced | wakefulness (dose dependence) ([1]; narcoleptic mice): dose-dependently increased | amounts of non-REM and REM sleep ([1]; active period, narcoleptic mice): brought down to the levels of wild-type mice | sleep that occurred after the prolonged wakefulness ([1]; polygraphic assessments, resting period, genotypes not distinguished): normal | wake-promoting effects ([1]; narcoleptic mice): Very potent | REM sleep [1, 4]: potently reduced | EEG patterns after administration ([1]; resting period, wild-type and narcoleptic mice not distinguished): no abnormal EEG patterns | duration of continuous wakefulness ([2]; 50 mg/kg PO, resting period): up to 3 hours | duration of continuous wakefulness ([2]; 100 mg/kg PO, resting period): ≤ 4 h | duration of continuous wakefulness ([2]; 150 mg/kg PO, resting period): ≤ 5 h | Non-REM and REM sleep during the period of continuous wakefulness ([2]; 50, 100, 150 mg/kg PO, resting period, wild-type mice): completely suppressed | bouts of wakefulness ([2]; 50-150 mg/kg PO, wild-type mice): significantly increased | wake-promoting effects (magnitude) ([2]; active (dark) period, wild-type mice, high baseline wakefulness): only small effects | wakefulness (dose dependence) ([2]; active period (dosed PO at ZT 14), wild-type mice): dose-dependently increased | wake-promoting effects ([2]; wild-type mice): Very potent | ED50 (Male CD-1 mice; Mus musculus, multiple dosing PO, mice (twice a day for 3 days plus a dose on Day 4), read-out: ED50 (reduction in mean immobility time)): 5.5 mg/kg | mean duration of immobility (Male CD-1 mice; multiple dosing 3 mg/kg PO, control 85 sec): 63 s | mean duration of immobility (Male CD-1 mice; multiple dosing 5 mg/kg PO, control 136 sec, significant): 73 s | mean duration of immobility (Male CD-1 mice; multiple dosing 8 mg/kg PO, control 114 sec, significant): 39 s | mean duration of immobility (Male CD-1 mice; single dose 10 mg/kg PO, control 131 sec): 101 s | mean duration of immobility (Male CD-1 mice; single dose 15 mg/kg PO, control 154 sec, significant): 80 s | mean duration of immobility (Male CD-1 mice; single dose 30 mg/kg PO, control 132 sec, significant): 30 s | mean duration of immobility (male Wistar rats; 10 mg/kg PO, control 74 sec, not statistically significant): 62 s | mean duration of immobility (male Wistar rats; 15 mg/kg PO, control 65 sec, not statistically significant): 39 s | mean duration of immobility (male Wistar rats; 30 mg/kg PO, control 38 sec, significant): 9 s
